From PMC9653733, “Characterization of a Potent, Selective, and Safe Inhibitor, Ac15(Az8)2, in Reversing Multidrug Resistance Mediated by Breast Cancer Resistance Protein (BCRP/ABCG2)” (International Journal of Molecular Sciences, 2022)
Values joined by “and” are separate entries in the source; they are usually repeats but may differ in a detail not shown here. Equal values may be shown once. Read-outs that look alike come from different tables or passages of the source.

How the values were obtained:
S1 cells [1] = assay: Drug accumulation assay in S1; type: cell-based, human; settings: non-BCRP overexpressing S1 cells; 100 nM or 1000 nM
Protocol: Figure 2 Effect of Ac15(Az8)2 on intracellular accumulation of BCRP-substrates in S1 and S1M180 cells. Cells were pre-treated with 0.1% DMSO, 100 nM, or 1000 nM Ac15(Az8)2 and then incubated with BCRP substrates. (A) Topotecan accumulation. (B) DOX accumulation. The intracellular level of drug after treatment was normalized to that of S1 cells after incubating with 0.1% DMSO. Student unpaired two-tailed t-test was conducted as indicated (** p < 0.01, *** p < 0.001). (C) To measure DOX efflux, S1M180 cells were pre-incubated with medium containing 20 μM DOX for 1 h at 37 °C. Cells were then washed and further incubated with or without 1 µM of Ac15(Az8)2. At 0, 5, 10, 30, 60, 120, and 180 min, the cells were harvested to measure the intracellular DOX level. (D) To determine intracellular Ac15(Az8)2 concentration, 1 × 10^7 cells were incubated with 1 µM of Ac15(Az8)2 at 37 °C for 2 h. Cells were then washed with ice-cold PBS. […]
Briefly, 1 × 10^6 cells of S1 and S1M180 cells were pre-incubated with 100 nM or 1000 nM Ac15(Az8)2 for 2 h and followed by 50 µM of topotecan or 20 µM of DOX for 1-h incubation. […] The fluorescence level of DOX was determined by a fluorescence microplate reader (BMG Technologies) using excitation and an emission wavelength pair of 460 nm and 610 nm.

BCRP (S1M180 cells) = target: T1, BCRP (S1M180 cells) (Homo sapiens, UniProt Q9UNQ0, R482G); assay: Cell proliferation (MTS) assay: reversal of BCRP-mediated topotecan/DOX resistance in S1M180; type: cell-based
T1 construct: endogenous in cells; host or cells: S1M180 (human colon carcinoma, mitoxantrone-selected)
T1 sequence (Q9UNQ0 1-655 R482G): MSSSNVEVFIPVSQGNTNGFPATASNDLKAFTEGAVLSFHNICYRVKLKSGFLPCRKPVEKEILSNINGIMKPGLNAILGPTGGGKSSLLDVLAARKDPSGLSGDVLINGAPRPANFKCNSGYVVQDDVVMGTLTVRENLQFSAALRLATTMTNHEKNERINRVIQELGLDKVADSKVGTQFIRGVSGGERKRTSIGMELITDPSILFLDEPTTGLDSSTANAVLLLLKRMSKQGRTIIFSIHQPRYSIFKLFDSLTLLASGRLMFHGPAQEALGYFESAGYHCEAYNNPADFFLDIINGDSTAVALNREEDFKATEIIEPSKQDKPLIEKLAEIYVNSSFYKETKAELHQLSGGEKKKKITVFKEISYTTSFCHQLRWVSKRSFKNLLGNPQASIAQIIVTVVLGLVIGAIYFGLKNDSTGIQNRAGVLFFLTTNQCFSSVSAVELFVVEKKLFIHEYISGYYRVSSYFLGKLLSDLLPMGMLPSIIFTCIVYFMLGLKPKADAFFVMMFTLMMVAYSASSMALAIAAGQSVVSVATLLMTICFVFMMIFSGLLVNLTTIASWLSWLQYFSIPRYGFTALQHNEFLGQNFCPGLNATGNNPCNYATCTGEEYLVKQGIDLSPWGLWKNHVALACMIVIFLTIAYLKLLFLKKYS
Protocol: In total, 6500 cells of S1M180 or MCF7-MX100 were incubated with various doses of topotecan or DOX and modulators. The final volume in each well of 96-well plates was 200 µL. The plates were then incubated for 5 days at 37 °C. The CellTiter 96 AQueous Assay (Promega) was used to measure cell proliferation. According to the manufacturer’s instructions, MTS (2 mg/mL) and PMS (0.92 mg/mL) were mixed in a ratio of 20:1. An aliquot (10 μL) of the freshly prepared MTS/PMS mixture was added into each well, and the plate was incubated for 2 h at 37 °C. Optical absorbance at 490 nm was then recorded with microplate absorbance reader (Bio-Rad). IC50 values were calculated from the dose-response curves of MTS assays (Prism 4.0).

BCRP = target: T2, BCRP (Homo sapiens, UniProt Q9UNQ0, R482G); assay: Lineweaver-Burk and Dixon plots of DOX retention in S1M180; type: cell-based; settings: for Ki: S1M180, DOX retention
T2 construct: endogenous in cells; host or cells: S1M180 (human colon carcinoma, mitoxantrone-selected)
T2 sequence (Q9UNQ0 1-655 R482G): T1 sequence (Q9UNQ0 1-655 R482G)
Protocol: We investigated the biochemical mechanism by which Ac15(Az8)2 inhibits BCRP. S1M180 cells were incubated with DOX and Ac15(Az8)2 at different concentrations. DOX accumulation was measured and analyzed by Lineweaver–Burk plot. […] Moreover, it is implied that DOX and Ac15(Az8)2 are not binding to the same site on BCRP. The apparent inhibition constant (Ki) can be calculated by either the Lineweaver–Burk plot (inset of Figure 5A) or the Dixon plot (Figure 5B).
Figure 5 Lineweaver–Burk and Dixon plot for Ac15(Az8)2 and DOX. S1M180 cells were incubated with different concentrations of Ac15(Az8)2 and DOX. The cells were pre-treated with Ac15(Az8)2 for 2 h and then incubated with DOX for 1 h at 37 °C. After incubation, the cells were washed with ice-cold PBS, and the intracellular DOX level was measured. (A) In Lineweaver–Burk plot, the reciprocal of DOX retention rate (V, μM/min/500,000 cells) is plotted against reciprocal of DOX concentration used. Six lines of Ac15(Az8)2 pass through the same intercepts at the x-axis, which is Km for the DOX. […] (B) In Dixon plot, reciprocal of DOX retention rate (1/V) was plotted against concentration of Ac15(Az8)2.

BCRP-ATPase = target: T3, BCRP-ATPase (Homo sapiens, UniProt Q9UNQ0, R482G); assay: Vanadate-sensitive BCRP-ATPase activity (S1M180 microsome fraction); type: biochemical; settings: 2.5 mM ATP, 1 h
T3 construct: endogenous in cells; host or cells: S1M180 (human colon carcinoma, mitoxantrone-selected)
T3 sequence (Q9UNQ0 1-655 R482G): T1 sequence (Q9UNQ0 1-655 R482G)
Protocol: Ouabain (Na^+/K^+-ATPase inhibitor) and sodium azide (F-type ATPase inhibitor) were added to S1M180 microsome fraction to inhibit non-ABC transporter ATPase activities. Sodium orthovanadate inhibits ABC transporter ATPase activity and is used to calculate vanadate-ensitive activity by subtraction from the total ATPase activity (without sodium orthovanadate). […] After reaction was stopped, inorganic phosphate level was determined using colorimetry method. The percentages of vanadate-sensitive BCRP-ATPase activity were shown as mean ± S.D.
The membrane fraction of S1M180 cells was prepared as previously reported [48]. […] The absorbance of 655 nm was measured by CLARIOstar® microplate reader (BMG). […]

L929 = assay: Cytotoxicity towards normal mouse fibroblast cells L929; type: cell-based; settings: value without asterisk
S1 cells [2] = assay: Cytotoxicity of anticancer drugs in parental S1 (0.1% DMSO); type: cell-based, human

Row | Structure (SMILES) | Effect on DOX accumulation in S1 (S1 cells [1]) | Effect on topotecan accumulation in S1 (S1 cells [1]) | EC50 (BCRP (S1M180 cells); HEK293/R2, MCF7-MX100 and S1M180, summary of Table 2, read-out: EC50 for reversing topotecan and DOX resistance in three BCRP-overexpressed cell lines (range)) [nM] | EC50 (BCRP (S1M180 cells); concentration reducing IC50 of anticancer drug by half, mean ± S.D., n = 3–4, read-out: EC50 needed for reversing BCRP-mediated DOX resistance, S1M180) | EC50 (BCRP (S1M180 cells); concentration reducing IC50 of anticancer drug by half, mean ± S.D., n = 3–4, read-out: EC50 needed for reversing BCRP-mediated topotecan resistance, S1M180) [nM] | EC50 (BCRP (S1M180 cells); range over DOX and topotecan resistance of Table 2, read-out: EC50 for reversing resistance in S1M180 (range)) [nM] | Ki (BCRP; Lineweaver–Burk and Dixon, read-out: Apparent inhibition constant (Ki), range of both plots) [nM] | Ki (BCRP; read-out: Ki, Dixon plot) [nM] | Ki (BCRP; slope of double reciprocal plots vs concentration, read-out: Apparent Ki, Lineweaver–Burk plot) [nM] | Relationship with DOX in binding to BCRP (BCRP; did not affect Km but reduced Vmax) | IC50 (BCRP-ATPase) [nM] | IC50 (L929) [nM] | IC50 (S1 cells [2]; Homo sapiens, S1 + 0.1% DMSO, mean ± S.D., n = 3, read-out: IC50 of topotecan) [nM] | RF (Relative Fold), topotecan: resistance of S1M180 compared to parental S1 (S1 cells [2]; S1 + 0.1% DMSO vs S1M180 + 0.1% DMSO)
1 | COC(=O)c1cccc(COc2c(-c3ccc(OCCOCCn4cc(CN(Cc5ccccc5)Cc5cn(CCOCCOc6ccc(-c7oc8ccccc8c(=O)c7OCc7cccc(C(=O)OC)c7)cc6)nn5)nn4)cc3)oc3ccccc3c2=O)c1 [Ac15(Az8)2] | did not affect | did not affect | 3 to 72 | 56 nM and 56.1 nM | 72 ± 12 | 56 to 72 | 230 to 295 | 230 | 295 | non-competitive | 7.5 | > 500000 | – | –
2 | CC[C@@]1(O)C(=O)OCc2c1cc1n(c2=O)Cc2cc3c(CN(C)C)c(O)ccc3nc2-1 [topotecan] | – | – | – | – | – | – | – | – | – | – | – | – | 446 ± 20 | 27.9
